Key:
Type in all cases: cell-based
[1] = system: MOLM-13 cells; assay: MOLM-13 cell viability assay (CellTiter-Glo); conditions: Homo sapiens, MOLM-13, 72 h, 3 days, read-out: MOLM-13 Cell Viability % DMSO at 1 μM
Experimental: MOLM-13 cells were cultured in RPMI 1640 media supplemented with 10% fetal bovine serum, streptomycin and penicillin, and were plated in walled 96-well plates at 2500 cells/well. Cells were incubated in DMSO (control) or the indicated compound for 3 days at 37° C. and 5% CO2. Following the incubation period, 100 μL of CellTiterGlow (CTG) reagent (CellTiter-Glo® Luminescent Cell Viability Assay, Promega (Madison, Wis.)) was added to each well. Following a 10 minutes incubation with shaking, luminescence was measured using the EnVision Multimode plate reader.
The MOLM-13 cell viability values as % DMSO are reported as “A”, “B”, “C”, or “D”. “A” represents a % viability value of less than 50% (value <50%). “B” represents a % viability value of equal to or more than 50% and less than 70% (50%≤value<70%). “C” represents a % viability value of equal to or more than 70% and less than 90% (70%≤value<90%). “D” represents a % viability value of equal or more than 90% (value ≥90%).

[2] = target: T1, CDK9 (Homo sapiens, UniProt P50750); assay: CDK9 degradation assay (Western blot, MV-4-11 cells); conditions: 6-8 h; for Dmax at 0.1 µM: MV4-11, 0.1 μM; for Dmax at 1 µM: MV4-11, 1 μM
T1 construct: Whole cell extracts were prepared using RIPA buffer; endogenous in cells; host or cells: MV-4-11
T1 sequence (P50750 whole entry): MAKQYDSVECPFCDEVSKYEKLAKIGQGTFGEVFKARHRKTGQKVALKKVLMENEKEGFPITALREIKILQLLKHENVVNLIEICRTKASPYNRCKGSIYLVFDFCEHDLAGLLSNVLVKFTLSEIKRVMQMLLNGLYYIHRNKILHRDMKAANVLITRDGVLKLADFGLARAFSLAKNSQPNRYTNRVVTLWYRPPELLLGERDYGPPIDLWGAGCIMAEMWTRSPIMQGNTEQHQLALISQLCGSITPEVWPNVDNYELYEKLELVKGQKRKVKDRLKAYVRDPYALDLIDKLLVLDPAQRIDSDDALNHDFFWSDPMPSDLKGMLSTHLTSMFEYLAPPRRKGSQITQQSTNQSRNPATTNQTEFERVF
Experimental: (§1) MV-4-11 cells were grown in RPMI 1640 media supplemented with 10% fetal bovine serum, streptomycin and penicillin.
(§2) Cells were cultured at approximately 10^6 cells per mL and incubated in DMSO or the indicated compound for 6-8 h. Whole cell extracts were prepared using RIPA buffer according to manufacturer's protocol (Pierce). Briefly, 3×10^6 cells were washed once in PBS, the cell pellets were resuspended in RIPA buffer and allowed to incubate for 15 minutes on ice. Cells debris was removed by centrifugation and the cleared whole cell lysates were transferred to new tubes for further analysis.
(§3) For Western blot analysis, whole cell protein extracts were separated on 4-12% SDS-polyacrylamide gels, transferred to nitrocellulose and probed with the indicated primary antibodies. Membranes were subsequently washed and probed with the appropriate IRDye secondary antibodies (LI-COR). The signal was detected using the Odyssey Imaging System (LI-COR).
(§4) The following antibodies were used in these studies: Anti-eRF3/GSPT1: Abcam, ab126090 (Cambridge, Mass.); Anti-Ikaros: Abcam, ab191394 (Cambridge, Mass.); Anti-CK1α: Abcam, ab108296 (Cambridge, Mass.); Anti-CDK9: Santa Cruz Biotechnology, sc13130 (Dallas, Tex.); Anti-CDK16: Millipore Sigma, HPA001366 (St. Louis, Mo.); 3-actin (8H10comD10) mouse monoclonal antibody: Cell Signaling Technology, #3700 (Danvers, Mass.); IRDye 680RD Goat anti-rabbit antibody: LI-COR, 926-68071 (Lincoln, Nebr.); IRDye 800CW Goat anti-mouse antibody: LI-COR, 926-32210 (Lincoln, Nebr.).
(§5) CDK9 activities are shown in Table 4 at two different concentrations. CDK16 activities are shown in Table 5 at two different concentrations. In each of Tables 1-5, the % degradation values are reported as “A”, “B”, “C”, or “D”. “A” represents a % degradation value of less than 25% (value <25%). “B” represents a % degradation value of equal to or more than 25% and less than 50% (25%≤value<50%). “C” represents a % degradation value of equal to or more than 50% and less than 75% (50%≤value<75%). “D” represents a % degradation value of equal to or more than 75% (value ≥75%).

[3] = target: T2, CDK16 (Homo sapiens, UniProt Q00536); assay: CDK16 degradation assay (Western blot, MV-4-11 cells); conditions: 6-8 h; for Dmax at 0.1 µM: MV4-11, 0.1 μM; for Dmax at 1 µM: MV4-11, 1 μM
T2 construct: Whole cell extracts were prepared using RIPA buffer; endogenous in cells; host or cells: MV-4-11
T2 sequence (Q00536 whole entry): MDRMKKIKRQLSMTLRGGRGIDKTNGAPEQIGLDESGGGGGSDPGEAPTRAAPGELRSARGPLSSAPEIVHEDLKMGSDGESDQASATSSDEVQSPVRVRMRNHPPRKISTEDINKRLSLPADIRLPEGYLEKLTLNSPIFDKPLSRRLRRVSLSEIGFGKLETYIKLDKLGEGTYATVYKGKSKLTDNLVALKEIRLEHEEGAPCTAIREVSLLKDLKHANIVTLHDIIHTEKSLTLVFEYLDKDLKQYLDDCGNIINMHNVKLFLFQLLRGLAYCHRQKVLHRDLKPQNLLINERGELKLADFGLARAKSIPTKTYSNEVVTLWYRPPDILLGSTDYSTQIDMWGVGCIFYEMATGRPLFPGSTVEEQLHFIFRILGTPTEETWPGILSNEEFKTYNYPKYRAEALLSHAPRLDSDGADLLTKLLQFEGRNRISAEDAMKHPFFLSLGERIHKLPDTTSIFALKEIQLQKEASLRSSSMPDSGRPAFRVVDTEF
Experimental: as §1, §2, §3, §4, §5

| SMILES | viability at 1 µM [1] [%] | Dmax at 0.1 µM [2] [%] | Dmax at 1 µM [2] [%] | Dmax at 0.1 µM [3] [%] | Dmax at 1 µM [3] [%] |
| --- | --- | --- | --- | --- | --- |
| CC(C)(C)c1cnc(CSc2cnc(NC(=O)C3CCN(CC(=O)NCCCCCNC(=O)NCc4cc5c(s4)C(=O)N(C4CCC(=O)NC4=O)C5)CC3)s2)o1 (centres unmarked) [Compound 1, 3-[8-Oxo-3-({3-[5-(2-{4-[(5-{[5-(tert-butyl)-1,3-oxazol-2-yl]methylthio}-1,3-thiazol-2-ylamino)carbonyl]-1-piperidyl}acetylamino)pentyl]ureido}methyl)-2-thia-7-azabicyclo[3.3.0]octa-1(5),3-dien-7-yl]-2,6-piperidinedione] | > 90 |  |  |  |  |
| CC(C)(C)c1cnc(CSc2cnc(NC(=O)C3CCN(CC(=O)NCCCNC(=O)NCc4cc5c(s4)C(=O)N(C4CCC(=O)NC4=O)C5)CC3)s2)o1 (centres unmarked) [Compound 12, N-(5-(((5-(tert-butyl)oxazol-2-yl)methyl)thio)thiazol-2-yl)-1-(2-((3-(3-((5-(2,6-dioxopiperidin-3-yl)-6-oxo-5,6-dihydro-4H-thieno[2,3-c]pyrrol-2-yl)methyl)ureido)propyl)amino)-2-oxoethyl)piperidine-4-carboxamide] | > 90 | ≥ 75 | ≥ 75 | 25 to 50 | 25 to 50 |
| CN(CCNC(=O)CN1CCC(C(=O)Nc2ncc(SCc3ncc(C(C)(C)C)o3)s2)CC1)CCNC(=O)NCc1cc2c(s1)C(=O)N(C1CCC(=O)NC1=O)C2 (centres unmarked) [Compound 15, N-(5-(((5-(tert-butyl)oxazol-2-yl)methyl)thio)thiazol-2-yl)-1-(1-(5-(2,6-dioxopiperidin-3-yl)-6-oxo-5,6-dihydro-4H-thieno[2,3-c]pyrrol-2-yl)-7-methyl-3,11-dioxo-2,4,7,10-tetraazadodecan-12-yl)piperidine-4-carboxamide] | 70 to 90 | 50 to 75 | ≥ 75 | < 25 | < 25 |
| Cn1ncc(-c2nc(N[C@H]3CC[C@H](NCC(=O)NCCCCCNC(=O)NCc4cc5c(s4)C(=O)N(C4CCC(=O)NC4=O)C5)CC3)ncc2Cl)c1CC1CC1 (some centres unmarked) [Compound 16, 2-(((1r,4r)-4-((5-chloro-4-(5-(cyclopropylmethyl)-1-methyl-1H-pyrazol-4-yl)pyrimidin-2-yl)amino)cyclohexyl)amino)-N-(5-(3-((5-(2,6-dioxopiperidin-3-yl)-6-oxo-5,6-dihydro-4H-thieno[2,3-c]pyrrol-2-yl)methyl)ureido)pentyl)acetamide] | > 90 | 50 to 75 | ≥ 75 | ≥ 75 | ≥ 75 |
| Cn1ncc(-c2nc(N[C@H]3CC[C@H](NCC(=O)NCCCCCNC(=O)NCc4cc5c(s4)C(=O)N(C4CCC(=O)NC4=O)C5)CC3)ncc2F)c1CC1CC1 (some centres unmarked) [Compound 17, 2-(((1r,4r)-4-((4-(5-(cyclopropylmethyl)-1-methyl-1H-pyrazol-4-yl)-5-fluoropyrimidin-2-yl)amino)cyclohexyl)amino)-N-(5-(3-((5-(2,6-dioxopiperidin-3-yl)-6-oxo-5,6-dihydro-4H-thieno[2,3-c]pyrrol-2-yl)methyl)ureido)pentyl)acetamide] |  | 50 to 75 | ≥ 75 | 50 to 75 | 50 to 75 |
| Cn1ncc(-c2nc(N[C@H]3CC[C@H](NCCCCCCCCNC(=O)NCc4cc5c(s4)C(=O)N(C4CCC(=O)NC4=O)C5)CC3)ncc2F)c1CC1CC1 (some centres unmarked) [Compound 23, 1-(8-(((1r,4r)-4-((4-(5-(cyclopropylmethyl)-1-methyl-1H-pyrazol-4-yl)-5-fluoropyrimidin-2-yl)amino)cyclohexyl)amino)octyl)-3-((5-(2,6-dioxopiperidin-3-yl)-6-oxo-5,6-dihydro-4H-thieno[2,3-c]pyrrol-2-yl)methyl)urea] | > 90 | ≥ 75 | ≥ 75 | 50 to 75 | ≥ 75 |
| Cn1ncc(-c2nc(N[C@H]3CC[C@H](NCC(=O)NCCCCCNCC(=O)NCc4scc5c4CN(C4CCC(=O)NC4=O)C5=O)CC3)ncc2Cl)c1CC1CC1 (some centres unmarked) [Compound 31, 2-(((1r,4r)-4-((5-chloro-4-(5-(cyclopropylmethyl)-1-methyl-1H-pyrazol-4-yl)pyrimidin-2-yl)amino)cyclohexyl)amino)-N-(5-((2-(((5-(2,6-dioxopiperidin-3-yl)-4-oxo-5,6-dihydro-4H-thieno[3,4-c]pyrrol-1-yl)methyl)amino)-2-oxoethyl)amino)pentyl)acetamide] | > 90 | 25 to 50 | ≥ 75 | 25 to 50 | ≥ 75 |
| CN(CCNCC(=O)NCc1cc2c(s1)C(=O)N(C1CCC(=O)NC1=O)C2)CCNC(=O)CN1CCC(C(=O)Nc2ncc(SCc3ncc(C(C)(C)C)o3)s2)CC1 (centres unmarked) [Compound 47, N-(5-(((5-(tert-butyl)oxazol-2-yl)methyl)thio)thiazol-2-yl)-1-(1-(5-(2,6-dioxopiperidin-3-yl)-6-oxo-5,6-dihydro-4H-thieno[2,3-c]pyrrol-2-yl)-8-methyl-3,12-dioxo-2,5,8,11-tetraazatridecan-13-yl)piperidine-4-carboxamide] | 70 to 90 |  |  |  |  |
| Cn1ncc(-c2nc(N[C@H]3CC[C@H](NCC(=O)NCCCCNCC(=O)NCc4scc5c4C(=O)N(C4CCC(=O)NC4=O)C5=O)CC3)ncc2F)c1CC1CC1 (some centres unmarked) [Compound 48, 2-(((1r,4r)-4-((4-(5-(cyclopropylmethyl)-1-methyl-1H-pyrazol-4-yl)-5-fluoropyrimidin-2-yl)amino)cyclohexyl)amino)-N-(4-((2-(((5-(2,6-dioxopiperidin-3-yl)-4,6-dioxo-5,6-dihydro-4H-thieno[3,4-c]pyrrol-1-yl)methyl)amino)-2-oxoethyl)amino)butyl)acetamide] | > 90 |  |  |  |  |
| Cn1ncc(-c2nc(N[C@H]3CC[C@H](NCCCCCCCNCC(=O)NCc4cc5c(s4)C(=O)N(C4CCC(=O)NC4=O)C5)CC3)ncc2Cl)c1CC1CC1 (some centres unmarked) [Compound 53, 2-((7-(((1r,4r)-4-((5-chloro-4-(5-(cyclopropylmethyl)-1-methyl-1H-pyrazol-4-yl)pyrimidin-2-yl)amino)cyclohexyl)amino)heptyl)amino)-N-((5-(2,6-dioxopiperidin-3-yl)-6-oxo-5,6-dihydro-4H-thieno[2,3-c]pyrrol-2-yl)methyl)acetamide] | > 90 |  |  |  |  |
| Cn1ncc(-c2nc(N[C@H]3CC[C@H](NCCCCCNCC(=O)NCc4cc5c(s4)C(=O)N(C4CCC(=O)NC4=O)C5)CC3)ncc2Cl)c1CC1CC1 (some centres unmarked) [Compound 60, 2-((5-(((1r,4r)-4-((5-chloro-4-(5-(cyclopropylmethyl)-1-methyl-1H-pyrazol-4-yl)pyrimidin-2-yl)amino)cyclohexyl)amino)pentyl)amino)-N-((5-(2,6-dioxopiperidin-3-yl)-6-oxo-5,6-dihydro-4H-thieno[2,3-c]pyrrol-2-yl)methyl)acetamide] | > 90 |  |  |  |  |
| Cn1ncc(-c2nc(N[C@H]3CC[C@H](NCC(=O)NCCOCCOCCOCCNCc4cc5c(s4)C(=O)N(C4CCC(=O)NC4=O)C5)CC3)ncc2F)c1CC1CC1 (some centres unmarked) [Compound 62, 2-(((1r,4r)-4-((4-(5-(cyclopropylmethyl)-1-methyl-1H-pyrazol-4-yl)-5-fluoropyrimidin-2-yl)amino)cyclohexyl)amino)-N-(1-(5-(2,6-dioxopiperidin-3-yl)-6-oxo-5,6-dihydro-4H-thieno[2,3-c]pyrrol-2-yl)-5,8,11-trioxa-2-azatridecan-13-yl)acetamide] | > 90 |  |  |  |  |

— patent publication US20220153751A1, “BIFUNCTIONAL COMPOUNDS” (BioTheryX, Inc., priority 2018, published 2022)
